For data set [1], the target named is T1, PP2A (Mus musculus, UniProt P63330).
T1 construct: endogenous in cells; host or cells: 32Dc13, 32D-BCR/ABL, 32D-BCR/ABL-T315I, 32D-p210 Y253H, BaF3-p210 T315I, K562, primary CML-BC CD34+ and NBM CD34+ cells
Nature of the data set: PP2A IP phosphatase assay on lysates of treated cells. In kind it is cell-based. The following applies: FTY720 2.5 μM, BCR/ABL-transformed cell lines. The method, then: PP2A phosphatase assays were carried out using the PP2A IP phosphatase assay kit (Upstate). Briefly, protein lysates (50 μg) in 100 μl of 20 mM HEPES (pH 7.0)/100 mM NaCl, 5 μg of PP2Ac antibody (Upstate), and 25 μl of Protein A-agarose were added to 400 μl of 50 mM Tris (pH 7.0)/100 mM CaCl2, and IPs were carried out at 4° C. for 2 hr. IPs were washed and used in the phosphatase reaction according to the manufacturer's protocol. Specificity of the PP2A assay was assessed by titration with okadaic acid and by ascertaining the absence of PP1a in the PP2A immunoprecipitates (Figure S2A). As internal control, the amount of immunoprecipitated PP2A was also monitored by anti-PP2Ac Western blots (Figure S2B).

Data set [2] deals with BCR/ABL. As to the kind of experiment: Western blot of BCR/ABL activity (phosphotyrosine) and expression. The format is cell-based. The following applies: upon treatment with FTY720 2.5 μM. (Immunoblotting shows a protein as a band on a membrane.)
Method: Cells (10^7) were lysed in 100 μl of RIPA buffer (150 mM NaCl, 1% NP-40, 0.1% SDS, 50 mM Tris [pH 8.0]) supplemented with 1 mM PMSF, 25 μg/ml aprotinin, 10 μg/ml leupeptin, 100 μg/ml pepstatin A, 5 mM benzamidine, 1 mM Na3VO4, 50 mM NaF, 10 mM β-glycerol-phosphate. After incubation on ice (30 min), lysates were clarified (12,000×g, 15 min, 4° C.), denatured, and subjected to SDS-PAGE and Western blot (Iervolino et al., 2002). The antibodies used were goat polyclonal anti-SET(I2PP2A), -pp32(I1PP2A), and -hnRNP A1 and rabbit polyclonal anti-SHP-1 (Santa Cruz Biotechnology); monoclonal anti-Abl (Ab-3), -c-myc (Ab-2), -phosphotyrosine PY20 (Ab-4), and -pBAD^S112 (Ab-1) (EMD); monoclonal anti-hnRNP A1 (9H10) (G. Dreyfuss, University of Pennsylvania, Philadelphia, Pa.); monoclonal anti-GRB2 and -Rb (BD TransLab Inc.); monoclonal anti-HA (Covance); monoclonal anti-PP2Ac, clone 1D6 (Upstate Inc.); monoclonal anti-FLAG, clone M2 (Sigma); monoclonal anti-pERK^T202/Y204 and rabbit polyclonal anti-pAKT^T308, pSTAT5^Y694, -pJak2^Y1007/1008, -Jak2, -BAD, -Akt, and -ERK1/2 (Cell Signaling Technology Inc.); monoclonal anti-STATS (Invitrogen); rabbit monoclonal anti-pPP2A^Y307 (Epitomics); rabbit polyclonal anti-PR65/A (Calbiochem). IPs were carried out in 20 mM HEPES (pH 7.0), 150 mM NaCl, and 0.2% NP-40 supplemented with protease and phosphatase inhibitors. Lysates were precleared and immunoprecipitated with Ab-coated beads for 3 hr at 4° C. After washings, IPs were subjected to SDS-PAGE and Western blot.
The subject of data set [3] is primary CML-BC, p210-BCR/ABL and p190-BCR/ABL expressing cell lines. As to the kind of experiment: FTY720 in vitro: proliferation, clonogenic potential and apoptosis of BCR/ABL-expressing cells. The format is cell-based. The following applies: 2.5 μM FTY720, imatinib-sensitive and -resistant p210 and p190 cell lines. An excerpt: We studied the in vitro effect of FTY720 and derivative compounds on proliferation rate, clonogenic potential, and apoptosis in imatinib-sensitive and -resistant p210-BCR/ABL-expressing cells and p190-BCR/ABL-expressing cells. We then investigated the in vivo antileukemic potential of FTY720 in a mouse-model of imatinib-resistant CML-BC,
(§1) We obtained FTY720 synthesized using previously published methods (see Budde, K., et al., First human trial of FTY720, a novel immunomodulator, in stable renal transplant patients. J Am Soc Nephrol, (2002) 13:1073-83). Cells in liquid culture and in methylcellulose colony assays were cultured in the presence of 2.5 μM FTY720. SCID mice were i.v. injected with 5×10^5 T315I BCR/ABL-transduced 32Dc13 cells and levels of BCR/ABL in the peripheral blood were assessed by nested reverse transcriptase PCR. Upon establishment of a leukemia-like disease, mice were i.p. injected daily with FTY720 (250 μg/mouse/day). The disease process was monitored weekly by nested reverse transcriptase PCR. Apoptosis was assessed by AnnexinV/PI staining on untreated vs. treated cells.

For data set [4], the system named is T315I BCR/ABL-transduced 32Dc13 cells. The format is in vivo. The protocol:
as §1

The test system of data set [5] is Akt. As to the kind of experiment: Western blot of phosphorylated and total Akt. The format is cell-based. Particulars: FTY720-treated 32D-BCR/ABL cells.
For data set [6], the system named is untransduced 32Dc13 cells and primary normal bone marrow cells. As to the kind of experiment: FTY720 on cells not expressing the oncogene. In kind it is cell-based. Particulars: untransduced 32Dc13 cells and primary normal bone marrow cells from healthy donors; FTY720 2.5 μM. The method, then:
as §1

Each structure is given as a SMILES string.

With `CCCCCCCCc1ccc(CCC(N)(CO)CO)cc1` [FTY720], in data set [1], the “expression of PP2A protein levels” value is reported as “without increased expression”. In data set [1] (prior to induction of apoptosis), the PP2A activity entry was “induces”. For the same compound, the BCR/ABL activity result in data set [2] is listed as “inactivated”. Further, in data set [3], the “growth, apoptosis and clonogenic potential” value was “significant growth inhibition, apoptosis and impaired clonogenic potential”. Further, the mice alive result in data set [4] (FTY720 250 μg/mouse/day i.p., after 20 weeks of treatment) was “more than 50%”. Further, in data set [4] (control group that received only the drug), the signs of toxicity entry is “no signs of toxicity”. Also, in data set [5], the Akt phosphorylation/activity result is “Dephosphorylation and inactivation”. Further, in data set [6], the “inhibitory effect on cells not expressing the oncogene” value was “no effect was detected”.

(Values after patent publication US8633161B2, “Therapeutic agents for the treatment of leukemia” (The Ohio State University Research Foundation, priority 2005, dated 2014).)
